Measured values: patent US20200172975A1, “Cell-Free microRNA Signatures of Pancreatic Islet Beta Cell Death” (THE UNIVERSITY OF SYDNEY, priority 2017, published 2020)

System: new-onset T1D individuals
Test: Clinical study of ingested interferon-α: residual C-peptide and microRNA signature of beta cell death
Type: in vivo, human
Text: In order to assess whether microRNAs could predict treatment efficacy, microRNAs were profiled from a de-identified clinical study set of samples from new-onset T1D individuals. These individuals received oral interferon-α at two doses as a therapy to preserve beta cell mass. The effect of ingested interferon-α on residual C-peptide (a measure of beta cell mass) at one year following treatment with 5000 units, 30,000 units or placebo was investigated.
Treatment groups are shown on the X-axis. The remaining beta-cell function measured as circulating C-peptide levels at 1 year (relative to baseline) are plotted on Y-axis (adjusted means, vertical bars denote 0.95 confidence intervals).

## interferon-α
30,000 units ingested IFN treatment group as compared to the Control group, FIG. 13
  remaining beta-cell function measured as circulating C-peptide levels at 1 year (relative to baseline): significant preservation of islet beta cell mass
30,000 units ingested IFN treatment group, 12 months from study baseline
  miRNA signature of beta cell death (abundance): lower abundance
Individuals showing the highest preservation of beta-cell mass at one year of treatment, FIG. 14
  microRNA signature of beta cell death: decreased
